Measured values taken from article PMC5571359, “Screening the Medicines for Malaria Venture Pathogen Box across Multiple Pathogens Reclassifies Starting Points for Open-Source Drug Discovery” (Antimicrobial Agents and Chemotherapy, 2017).
Like-named read-outs stand apart in the source and are kept apart here.

Tests used:
[1] = tested on: NF54-pfs16-LUC-GFP stage IV gametocytes; assay: Plasmodium falciparum late stage gametocyte (LSG) image-based assay; format: cell-based; details: Plasmodium falciparum
[2] = tested on: HEK293 cells; assay: HEK293 resazurin cell cytotoxicity assay; details: Homo sapiens
[3] = tested on: Plasmodium falciparum 3D7 asexual blood stage; assay: microbe, parasite or virus in culture
[4] = tested on: T. cruzi C4 β-galactosidase reporter parasite in MRC 5SV2 host cells; details: cited from earlier work
[5] = tested on: L. major; design: method as in Pbox supporting information; details: ref Pbox supporting information; cited from earlier work
[6] = tested on: T. brucei rhodesiense; details: ref Pbox supporting information; read-out: T .b. rohdensie Pbox IC50; cited from earlier work
[7] = tested on: T. b. brucei 427 bloodstream trypanosomes; assay: T. b. brucei resazurin viability assay; format: cell-based, Trypanosoma brucei brucei; details: for IC50: Trypanosoma brucei
[8] = tested on: T. brucei brucei; details: ref Pbox supporting information; read-out: T.b. brucei Pbox IC50; cited from earlier work
[9] = tested on: L. infanium (macrophages); design: method as in Pbox supporting information; details: ref Pbox supporting information; cited from earlier work
[10] = tested on: HepG2; details: ref PBox supporting information, cited from earlier work; for CC50: read-out: HepG2 PBox CC50 µM, HepG2 cytotoxicity
[11] = tested on: T. cruzi intracellular amastigotes; assay: Intracellular anti-Trypanosoma cruzi image-based assay (amastigotes); format: cell-based; details: for IC50 / Emax: Trypanosoma cruzi
[12] = HEK293 resazurin cell cytotoxicity assay; details: human
[13] = tested on: Plasmodium falciparum 3D7 asexual blood stage
[14] = tested on: L. donovani MHOM/IN/80/DD8 intracellular amastigotes; assay: Leishmania donovani intracellular amastigote assay in THP-1 cells; format: cell-based
[15] = tested on: infected PMM; design: method as in Pbox supporting information; details: ref Pbox supporting information, read-out: Toxicity on infected PMM Pbox IC50; cited from earlier work
[16] = tested on: L. donovani axenic amastigotes; design: method as in PBox supporting information; details: ref PBox supporting information; cited from earlier work
[17] = tested on: L. donovani (macrophages); design: method as in Pbox supporting information; details: ref Pbox supporting information; cited from earlier work
[18] = tested on: P. falciparum ABS; details: ChEMBL Data, TCMDC set, P. falciparum; read-out: TCMDC (ref 93) EX50; cited from earlier work
[19] = tested on: 3T3 host cells; assay: T. cruzi assay, activity against 3T3 host cells; format: cell-based; details: reference compound set; IA = inactive at 16.4 μM
Outline: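 3T3 cells were seeded on collagen-coated plates, incubated 24 h at 37 °C, infected with T. cruzi at MOI 5:1, and washed free of extracellular parasites after a further 24 h. Following 48 h compound exposure, cells were fixed, stained with Hoechst 33342 and HCS CellMask Green, and imaged by high-content analysis.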

[20] = NF54, read-out: Antiplasmodial IC50 (GAM / LSG), PBox compounds, stage IV gametocytes, single determination
[21] = HEK293, read-out: HEK % Inhibition 20uM/IC50 Discovery Biology
[22] = 3D7, read-out: Antiplasmodial IC50 (ABS), PBox compounds, P. falciparum 3D7
[23] = ref Pbox supporting information, read-out: T. cruzi Pbox IC50
[24] = read-out: T b.brucei Discovery Biology IC50
[25] = 48 h, read-out: IC50 T. cruzi (Discovery Biology)
[26] = 3D7, read-out: Pf 3D7 Discovery Biology IC50 µM, P. falciparum 3D7 asexual blood stage, Discovery Biology
[27] = read-out: IC50 T. brucei brucei (Discovery Biology)
[28] = Leishmania donovani, THP-1, read-out: IC50 L. donovani (Discovery Biology), PBox compounds, intracellular amastigotes
[29] = intracellular amastigotes, read-out: T cruzi Discovery Biology IC50

| SMILES | IC50 [1, 20] | IC50 [2, 21] | IC50 [4, 23] | IC50 [5] | IC50 [6] | IC50 [8] | IC50 [9] | HepG2 PBox CC20 [10] | IC50 [15] | IC50 [16] | IC50 [17] | further results |
| --- | --- | --- | --- | --- | --- | --- | --- | --- | --- | --- | --- | --- |
| CN1CCN(S(=O)(=O)c2ccc(-c3ccc4c(Nc5ncc(Cl)cn5)ccnc4c3)cc2)CC1 [MMV688283] | 4.1 µM | > 20 µM | 3.81 µM | 8.51 µM | 0.96 µM | 3.78 µM | 2.54 µM | 8.0 µM |  |  |  | IC50 [3, 22]: 0.66 µM; IC50 [7, 24]: 5.29 µM |
| Nc1nc2ccc(-c3cncc(Oc4ccc(F)cc4)c3)cc2[nH]1 [MMV687248] |  |  |  |  |  |  |  |  |  |  |  | IC50 [11, 25]: 4 µM; selectivity ratio at 72 h [12]: > 5; IC50 [3, 26]: 1.52 µM; selectivity index (SI) T. brucei brucei versus HEK293 ([7]; HEK293): > 20; selectivity index (SI) T. brucei brucei versus HEPG2 ([7]; HEPG2 (PBox data)): > 20; IC50 [7, 27]: 1.05 µM; CC50 [10]: 31.5 µM |
| CC(C)=CCC/C(C)=C/CNCCNC1C2CC3CC(C2)CC1C3 (centres unmarked) [MMV687273, SQ-109] |  |  |  |  |  |  |  |  |  |  |  | activity in the Discovery Biology ABS assay [13]: active; IC50 ([1]; NF54, read-out: Pf Stage IV GAMS Discovery Biology IC50 µM, stage IV gametocytes, Discovery Biology): 1.89 µM; activity against T. cruzi in the Discovery Biology assay [11]: active; IC50 ([11]; read-out: T cruzi Discovery Biology IC50 µM): 5.39 µM; selectivity ratio at 72 h [12]: > 5; IC50 [3, 26]: 1.43 µM; IC50 ([3]; 3D7, read-out: activity against P. falciparum (novel antiplasmodial actives of the tuberculosis set)): < 2 µM; activity against L. donovani in the Discovery Biology assay [14]: active; IC50 [14, 28]: 3.47 µM; activity against T. brucei brucei in the Discovery Biology assay [7]: active; IC50 [7, 27]: 2.28 µM; CC50 [10]: 7.1 µM |
| FC(F)(F)c1cc(NCCc2ccccc2)nc(-c2ccccn2)n1 [MMV659010] | 1.71 µM | > 20 µM | 4.25 µM |  | 27.2 µM | > 32 µM | 16.2 µM | >80 µM | 30 µM | 0.25 µM | 5.17 µM | IC50 [3, 22]: > 8 µM |
| CCOC(=O)c1c(NC(=O)c2c(F)c(F)c(F)c(F)c2F)sc(C(N)=O)c1C [MMV153413] | 1.06 µM |  |  |  |  |  |  |  |  |  |  | activity in the Discovery Biology ABS assay [13]: not ABS activity; selectivity ratio at 72 h [12]: > 5; IC50 [7, 27]: 2.99 µM; CC50 [10]: 4.2 µM |
| Clc1ccc(Cl)c(CO[C@H]2CCCC[C@@H]2n2ccnc2)c1 [MMV676048] |  | > 20 µM | 1.36 µM |  | 22.9 µM | > 32 µM | 16.2 µM | 37.1 µM | 30 µM | 15.6 µM | 12.8 µM | Emax ([11]; PBox kinetoplastid set compounds active against T. cruzi alone, read-out: Emax against T. cruzi (subefficacious effect)): < 100%; IC50 [11, 29]: 3.21 µM |
| O=C(CN1CCOCC1)Nc1ccc2ncnc(Nc3ccc(OCc4cccc(F)c4)c(Cl)c3)c2c1 [MMV688274] |  |  | 0.95 µM | 12.4 µM | 3.07 µM | 5.31 µM | > 32 µM | 10.9 µM |  |  |  |  |
| Cc1ncc(-c2ccnc(Nc3ccc(S(C)(=O)=O)cc3)n2)n1C(C)C [MMV676604] |  |  | 1.08 µM | 3.15 µM | < 0.13 µM | 0.26 µM | 1.15 µM | 0.179 µM |  |  |  | IC50 [11, 29]: 1.18 µM; IC50 ([2]; HEK293, read-out: HEK % Discovery Biology IC50): 2.7 µM; IC50 ([3]; 3D7, read-out: Pf 3D7 Discovery Biology IC50, P. falciparum 3D7 asexual blood stage): 3.23 µM; IC50 ([14]; Leishmania donovani, THP-1, intracellular amastigotes, some values marked *, read-out: L, donovani Discovery Biology IC50): 4.82 µM; IC50 [7, 24]: 0.14 µM |
| c1ccc(-c2nc(NC3CCCCC3)cc(C3CC3)n2)nc1 [MMV021013] | 0.19 µM |  |  |  |  |  |  |  |  |  |  | EC50 [18]: 0.73 µM; IC50 [11, 25]: 1.67 µM; selectivity ratio at 72 h [12]: > 5; inhibition at 20 µM [2, 21]: 83%; IC50 [3, 22]: 0.46 µM; IC50 [14, 28]: 1.48 µM; IC50 [7, 27]: 3.51 µM |
| Cc1nc(-c2ccccn2)nc(N2CCC(Cc3ccccc3)C2)c1Cl (centres unmarked) [MMV659004] | 0.67 µM | > 20 µM | 0.97 µM | 8.96 µM | 5.62 µM | 6.61 µM | 4.03 µM | 10.2 µM | 16.7 µM | 0.03 µM | 4.2 µM | IC50 [3, 22]: 1.86 µM |
| CC(C)(C)[C@H]1CC[C@H](CC2=C(O)C(=O)c3ccccc3C2=O)CC1 [Buparvaquone, reference compound] |  |  |  |  |  |  |  |  |  |  |  | IC50 ([1]; NF54, read-out: IC50 P. falciparum NF54 LSG, reference compound set, 11-point dose response, IA = inactive at 20 μM): 5.3 µM; IC50 ([11]; reference compound set, IA = inactive at 16.4 μM, read-out: IC50 T. cruzi intracellular amastigotes): 4.92 µM; Emax ([11]; reference compound set, read-out: T. cruzi Emax (maximal % inhibition plateau in dose response curve)): 98.5%; IC50 at 72 h ([12]; HEK293 cells): > 20 µM; IC50 ([3]; 3D7, read-out: IC50 P. falciparum 3D7 ABS, reference compound set, 11-point dose response, IA = inactive at 20 μM): 0.14 µM; IC50 ([14]; Leishmania donovani, THP-1, read-out: IC50 L. donovani n = 1, reference compound set, first test, IA = inactive at 20 μM): 1.88 µM; inhibition at 20 µM ([14]; Leishmania donovani, THP-1, reference compound set, second test, 20 μM, read-out: percent inhibition at the top screening dose, L. donovani n = 2): 60%; IC50 [19]: > 16.4 µM; IC50 ([7]; reference compound set, IA = inactive at 20 μM, read-out: IC50 T. brucei brucei trypomastigotes): > 20 µM |
| COC(=O)c1cccc2oc(-c3cccc(OC)c3NC(=O)c3cc(-c4ccccc4)on3)nc12 [MMV676186] |  |  | > 32 µM |  | > 32 µM | > 32 µM | > 32 µM | >80 µM | > 30 µM | 3.95 µM | > 30 µM |  |
| O=C(Nc1ccccc1-c1nc2c(C(=O)O)cccc2o1)c1ccccc1 [MMV676162] |  |  | > 32 µM |  | > 32 µM | > 32 µM | > 32 µM | >80 µM | > 30 µM | 0.4 µM | > 30 µM |  |
| Nc1ccc2ncnc(Nc3ccc(OCc4cccc(F)c4)c(Cl)c3)c2c1 [MMV688273] |  |  | 4.03 µM | 10.4 µM | 13.1 µM | > 32 µM | > 32 µM | 9.7 µM |  |  |  |  |
| CC(C)(C)OC(=O)N1CCN(c2cc(-c3ccc(Oc4ccccc4)cc3)n[nH]2)CC1 [MMV676057] |  |  | 9.37 µM | 13 µM | 2.7 µM | 3.89 µM | 10.2 µM | 4.0 µM | 20 µM | 1.32 µM | > 10 µM |  |
| Cc1nc(-c2ccccn2)nc(N(C)CCc2ccccc2)c1Cl [MMV658988] | 0.3 µM | > 20 µM | 0.88 µM |  | 11.8 µM | 14.9 µM | 4.06 µM | 11.3 µM | 16.7 µM | 0.02 µM | 2.6 µM | activity against T. cruzi at 8 μM in the Discovery Biology assay ([11]; 8 μM): no activity; IC50 [3, 22]: 2.18 µM; IC50 ([4]; 7 days exposure, ref PBox supporting information, read-out: T. cruzi IC50 in the PBox supporting information file): < 1 µM |
| COc1ccc(C(=N)N)cc1-c1cn(-c2ccc(C(=N)N)cc2)nn1 [MMV675998] |  | > 20 µM | 21.5 µM |  | < 0.13 µM | 0.25 µM | > 32 µM | 5.5 µM | 30 µM | 14.3 µM | > 30 µM | IC50 [7, 24]: 0.27 µM |
| c1ccc(Oc2ccc(-c3cc(CN4CCOCC4)[nH]n3)cc2)cc1 [MMV676161] |  |  | 16 µM |  | 5.26 µM | 15.1 µM | > 32 µM | 28.9 µM | 30 µM | 9.7 µM | 26.1 µM |  |
